Literature values as cited in US20190224118A1, “ORAL GASTRORETENTIVE FORMULATIONS AND USES THEREOF” (INTEC PHARMA LTD., priority 2016, published 2019).

| SMILES | number of metabolites identified in urine (urine) | plasma levels of active 11-hydroxy metabolite, oral administration versus smoking (oral versus smoking) |
| --- | --- | --- |
| C=C(C)[C@@H]1CCC(C)=C[C@H]1c1c(O)cc(CCCCC)cc1O [CBD, cannabidiol] | more than 33 |  |
| CCCCCc1cc(O)c2c(c1)OC(C)(C)[C@@H]1CCC(C)=C[C@@H]21 [Δ9-THC, Δ-9-tetrahydrocannabinol] |  | about three |
